The conditions of the data set: Crystal; Adiabatic calorimetry.

The structures appear in SMILES notation. Numbers after ± are expanded uncertainties.

On to `C(#Cc1ccccc1)c1ccccc1` [1,2-diphenylethyne], for which the Triple point temperature came to 332.02 ± 0.05 K.

For the origin of these results see the NIST ThermoML archive (doi:10.1021/je200673a).
